Assay results from patent US20050079495A1, “Modified tachykinin receptors” (priority 2000, published 2005).

Experiments:
[1] = system: functional G-protein Ca^2+ linked pathway; test: Fura-2 calcium imaging, UTP challenge of COS-7 cells; type: cell-based, monkey; details: UTP 3μM, 1 min
Experimental: Coverslips containing cells were prepared and maintained as described. Cultured cells were washed twice in a Krebs-Hepes extra-cellular medium buffer (EM, composition in mM: NaCl 118, KCl 4.7, MgSO4 1.2, CaCl2 1.2, KH2PO4 1.2, Hepes 10, glucose 11 and BSA 0.1%, (pH 7.2 at 20° C., (Rossant, et al Endocrinology, 140, 1525-1536), and then loaded with Fura-2 (Rossant, et al Endocrinology, 140, 1525-1536) by incubation for 3 h at 20° C. with EM containing Fura-2-AM (2 μM, Molecular Probes). This procedure enables the cells to load with Fura-2-AM, which becomes hydrolysed to the free acid form once inside the intact cells. After loading, coverslips were mounted into imaging chambers and perfused with EM to remove extra-cellular Fura-2-AM and to allow hydrolysis of intracellular Fura-2-AM to occur. Measurements of changes in the free [Ca^2+]i in individual cells were made from the fluorescence ratio (excitations 340 nm/380 nm, emission >510 nm) using a Spectral Wizard monochromator, cooled integrating CCD camera and a dedicated suite of software (Merlin, Life Sciences Resources, Cambridge, UK). Data are expressed as ratio units 340/380.
Genes encoding wild type sense, wild type anti-sense and variant NK-1 receptors described above were transiently transfected into COS-7 (monkey kidney) cell lines.

[2] = system: wild type anti-sense transfected COS-7 cells; test: Fura-2 calcium imaging, COS-7 cells transfected with wild type anti-sense construct (negative control); type: cell-based, monkey; details: COS-7 cells expressing wild type anti-sense, substance P 1 nM
Experimental: The resulting cDNA was excised from the parental vector, spliced into a mammalian expression vector, pCMV3.1 (Invitrogen). This cDNA was in an orientation which allowed expression of the hNK-1vR polypeptide. Stock plasmid was prepared by amplification in E. coli and the plasmid DNA subsequently purified using a Qiagen endonuclease free DNA preparation kit, and the fidelity of the construct confirmed by DNA sequencing. The nucleic acid sequence of the cDNA is SEQ ID N^o6 (FIG. 2) and the translated protein sequence is SEQ ID N^o5 (FIG. 1). Similarly control (negative control) constructs were prepared whereby wild type and variant HNK-1R cDNA was spliced into the vector in an opposite configuration to that described above. A further control (positive control) was prepared by ligation of the parental wild type hNK-1R cDNA into the vector in a manner which would allow hNK-1R polypeptide to be expressed. […]
Coverslips containing cells were prepared and maintained as described. […] Measurements of changes in the free [Ca^2+]i in individual cells were made from the fluorescence ratio (excitations 340 nm/380 nm, emission >510 nm) using a Spectral Wizard monochromator, cooled integrating CCD camera and a dedicated suite of software (Merlin, Life Sciences Resources, Cambridge, UK). Data are expressed as ratio units 340/380. […]

Row | Compound | [Ca^2+]i response to UTP challenge [1] | Ca^2+ response to substance P challenge [2]
1 | O=c1ccn([C@@H]2O[C@H](COP(=O)(O)OP(=O)(O)OP(=O)(O)O)[C@@H](O)[C@H]2O)c(=O)[nH]1 [UTP] | caused a [Ca^2+]i response | 
2 | H-Arg-Pro-Lys-Pro-Gln-Gln-Phe-Phe-Gly-Leu-Met-NH2 [substance P] |  | failed to invoke a Ca^2+ response
